According to patent US20240345082A1, “IDENTIFICATION AND APPLICATION OF SELECTIVE CELL SURFACE MARKERS AND ADDITIONAL METHODS FOR HUMAN RED/GREEN CONE PHOTORECEPTOR PRECURSOR ENRICHMENT” (Wisconsin Alumni Research Foundation, priority 2023, published 2024):

How the values were obtained:
CPP microaggregates [1] = test: Flow cytometric quantification of THRB2:tdTomato-positive red/green CPP cells in CPP microaggregates; type: cell-based, human; settings: CPP microaggregate formation combined with MMC treatment (250 ng/ml), 10 days post microaggregate formation; increased from 17% (unsorted CRR ROs at D60)
CPP microaggregates [2] = test: Ki-67 immunostaining (IHC) of MMC-treated ALCAM/CD166-sorted CPP microaggregates; settings: for Ki-67 positive cells in CPP microaggregates: 7 dpt

## CO[C@@]12[C@H](COC(N)=O)C3=C(C(=O)C(C)=C(N)C3=O)N1C[C@@H]1N[C@@H]12 [MMC, mitomycin C]
CPP microaggregates [1]
  percentage of THRB2:tdTomato-positive red/green CPP cells: 89.5%
CPP microaggregates [2]; 100 ng/mL MMC
  Ki-67 positive cells in CPP microaggregates: few
CPP microaggregates [2]; 250 ng/mL MMC
  Ki-67 positive cells in CPP microaggregates: almost nil
CPP microaggregates [2]; 500 ng/mL MMC
  morphology of CPP microaggregates: noticeable disruption
  Ki-67 positive cells in CPP microaggregates: almost nil
